The structures appear in SMILES notation. Counter-ions that a name gives are not always drawn.

What all share (format): cell-based
Assay [1] has as its system Xanthomonas arboricola pv. pruni. Briefly: 96-well microplate bioassay, MIC. To be noted: read-out: Minimum inhibitory concentration (MIC). The method, then: (§1) The butanol extract produced as in Example 3 was dissolved in methanol at a level of 5 mg/mL, and antibacterial activity thereof against various plant pathogens was examined.
(§2) Then, dilution with sterilized water was performed to reach 10^6 CFU/ml, and inoculation into a 96-well plate was performed.
(§3) For the butanol extract of the Bacillus sp. strain DR-08, the butanol extract of the strain DR-08 and streptomycin sulfate as a control agent were made to have the highest concentrations of 500·μg/mL and 100 μg/mL, respectively, in a TSB medium into which 14 various phytopathogenic bacteria including Gram-negative and Gram-positive bacteria had been inoculated. Then, starting from the next well, the concentrations were decreased by 2-fold using an octapipette. The butanol extract of the strain DR-08 was used by being sequentially diluted by 2-fold from 500 μg/mL at the highest down to 15.6 μg/mL, and streptomycin sulfate as a control agent was used by being sequentially diluted by 2-fold from 100 μg/mL at the highest down to 3.1 μg/mL. Standing culture was performed at optimal growth conditions, and then growth of the phytopathogenic bacteria was measured at an absorbance of 595 nm with a microplate reader. Then, a minimum growth inhibitory concentration (MIC) value was determined.

The test system of assay [2] is Agrobacterium tumefaciens. Briefly: 96-well microplate bioassay, MIC. The conditions noted are these: read-out: Minimum inhibitory concentration (MIC). The method, then: as §1, §2, §3
Another assay deals with Acidovorax konjaci. Briefly: 96-well microplate bioassay, MIC. The conditions noted are these: Paracidovorax konjaci; read-out: Minimum inhibitory concentration (MIC). The method, then:
as §1, §2, §3

Assay [3] has as its system Pseudomonas syringae pv. actinidiae. Briefly: 96-well microplate bioassay, MIC. To be noted: read-out: Minimum inhibitory concentration (MIC). Here is the method:
as §1, §2, §3

Assay [4] has as its system Pseudomonas syringae pv. lachrymans. The assay can be described thus: 96-well microplate bioassay, MIC. The conditions noted are these: read-out: Minimum inhibitory concentration (MIC). Here is the method:
as §1, §2, §3

In assay [5] the test system is Pectobacterium carotovora subsp. carotovora. The assay can be described thus: 96-well microplate bioassay, MIC. The conditions noted are these: read-out: Minimum inhibitory concentration (MIC). The method, then:
as §1, §2, §3

Assay [6] concerns Acidovorax avenae subsp. cattleyae. Briefly: 96-well microplate bioassay, MIC. Details: key: —: Not active. Here is the method:
as §1, §2, §3

Assay [7] deals with Pectobacterium chrysanthemi. Briefly: 96-well microplate bioassay, MIC. Details: key: —: Not active. Here is the method:
as §1, §2, §3

The next assay deals with Burkholderia glumae. The assay can be described thus: microbe, parasite or virus in culture. To be noted: read-out: Minimum inhibitory concentration (MIC).
For assay [8], the system named is Clavibacter michiganensis subsp. michiganensis. Briefly: 96-well microplate bioassay, MIC. The conditions noted are these: read-out: Minimum inhibitory concentration (MIC).
The test system of assay [9] is Xanthomonas arboricola pv. pruni. The assay can be described thus: microbe, parasite or virus in culture. The conditions noted are these: 48 h, read-out: Clear zone.
Assay [10] relates to Xanthomonas axonopodis pv. citri. Briefly: 96-well microplate bioassay, MIC. The conditions noted are these: read-out: Minimum inhibitory concentration (MIC).
Assay [11] deals with Xanthomonas oryzae pv. oryzae. The assay can be described thus: microbe, parasite or virus in culture. The conditions noted are these: read-out: Minimum inhibitory concentration (MIC).
For the next assay, the system named is Ralstonia solanacearum. The assay can be described thus: microbe, parasite or virus in culture. To be noted: read-out: Minimum inhibitory concentration (MIC).
In assay [12] the test system is Xanthomonas euvesicatoria. Briefly: microbe, parasite or virus in culture. To be noted: read-out: Minimum inhibitory concentration (MIC).

`[H]/N=C(/N)N[C@H]1[C@H](O)[C@@H](O)[C@H](O[C@@H]2O[C@@H](C)[C@](O)(C=O)[C@H]2O[C@@H]2O[C@@H](CO)[C@H](O)[C@@H](O)[C@@H]2NC)[C@@H](N/C(N)=N\[H])[C@@H]1O` [Streptomycin sulfate, streptomycin sulfate]: the MIC was found to be 12.5 µg/mL in [1]; 100 µg/mL in assay [2]; 6.25 µg/mL with Acidovorax konjaci; 12.5 µg/mL in [3]; 50 µg/mL in assay [4]; 12.5 µg/mL in assay [5]. In addition, the MIC was determined as 12.5 µg/mL in the assay on Burkholderia glumae; 25 µg/mL in assay [8]; 6.25 µg/mL in assay [10]; 3.12 µg/mL in assay [11]; 3.12 µg/mL in the assay with Ralstonia solanacearum; 12.5 µg/mL in [12]. Besides, the “Minimum inhibitory concentration (MIC)” value in assay [6] and in [7] was “—” in each case. Also, in assay [9], the zone of inhibition at 200 ppm was determined as 4 mm.

The values above are taken from patent publication US11528912B2, “Bacillus methylotrophicus strain DR-08 producing natural volatile compound and having antibacterial activity, and use thereof” (GLOBAL AGRO CO., LTD., priority 2016, dated 2022).
